In ChEMBL document CHEMBL1141575, “Preparation and in vitro biological evaluation of tetrapyrrole ethanolamide derivatives as potential anticancer agents” (Bioorg Med Chem Lett, 2008):

Legend:
[1] = system: SiHa; assay: Survival of human SIHA cells at 100 uM under deem light after 96 hrs by MTT assay relative to control; assay type: functional; details: read-out: Survival
[2] = Survival of human H209 cells at 50 uM under deem light after 96 hrs by MTT assay relative to control; assay type: functional; details: NCI-H209, 96 h, read-out: Survival
[3] = Survival of human H209 cells at 0.1 uM under deem light after 96 hrs by MTT assay relative to control; assay type: functional; details: NCI-H209, 96 h, read-out: Survival
[4] = Survival of human MDA-MB cells at 100 uM under deem light after 96 hrs by MTT assay relative to control; assay type: functional; details: read-out: Survival
[5] = system: HeLa; assay: Survival of human HeLa cells at 1 uM under deem light after 96 hrs by MTT assay relative to control; assay type: functional; details: read-out: Survival
[6] = system: HeLa; assay: Survival of human HeLa cells at 15.7 uM under deem light after 96 hrs by MTT assay relative to control; assay type: functional; details: read-out: Survival
[7] = system: Raji; assay: Cytotoxicity against human Raji cells under deem light after 96 hrs by MTT assay; assay type: functional, cell-based
[8] = Survival of human MDA-MB cells at 10 uM under deem light after 96 hrs by MTT assay relative to control; assay type: functional; details: read-out: Survival
[9] = system: SiHa; assay: Survival of human SIHA cells at 1 uM under deem light after 96 hrs by MTT assay relative to control; assay type: functional; details: read-out: Survival
[10] = system: HeLa; assay: Cytotoxicity against human HeLa cells under deem light after 96 hrs by MTT assay; assay type: functional, cell-based
[11] = system: NCI-H69; assay: Cytotoxicity against human H69 cells under deem light after 96 hrs by MTT assay; assay type: functional, cell-based; details: NCI-H69, 96 h
[12] = Survival of human MDA-MB cells at 0.1 uM under deem light after 96 hrs by MTT assay relative to control; assay type: functional; details: read-out: Survival
[13] = system: K562; assay: Survival of human K562 cells at 50 uM under deem light after 96 hrs by MTT assay relative to control; assay type: functional; details: K562, 96 h, read-out: Survival
[14] = Survival of human H209 cells at 100 uM under deem light after 96 hrs by MTT assay relative to control; assay type: functional; details: NCI-H209, 96 h, read-out: Survival
[15] = system: Raji; assay: Survival of human Raji cells at 1 uM under deem light after 96 hrs by MTT assay relative to control; assay type: functional; details: read-out: Survival
[16] = system: Raji; assay: Survival of human Raji cells at 50 uM under deem light after 96 hrs by MTT assay relative to control; assay type: functional; details: read-out: Survival
[17] = system: NCI-H69; assay: Survival of human H69 cells at 50 uM under deem light after 96 hrs by MTT assay relative to control; assay type: functional; details: NCI-H69, 96 h, read-out: Survival
[18] = Survival of human H209 cells at 15.7 uM under deem light after 96 hrs by MTT assay relative to control; assay type: functional; details: NCI-H209, 96 h, read-out: Survival
[19] = system: HeLa; assay: Survival of human HeLa cells at 50 uM under deem light after 96 hrs by MTT assay relative to control; assay type: functional; details: read-out: Survival
[20] = system: NCI-H69; assay: Survival of human H69 cells at 1 uM under deem light after 96 hrs by MTT assay relative to control; assay type: functional; details: NCI-H69, 96 h, read-out: Survival
[21] = Survival of human 2780.9S cells at 1 uM under deem light after 96 hrs by MTT assay relative to control; assay type: functional; details: read-out: Survival
[22] = system: K562; assay: Survival of human K562 cells at 15.7 uM under deem light after 96 hrs by MTT assay relative to control; assay type: functional; details: K562, 96 h, read-out: Survival
[23] = system: Raji; assay: Survival of human Raji cells at 0.1 uM under deem light after 96 hrs by MTT assay relative to control; assay type: functional; details: read-out: Survival
[24] = system: Daudi; assay: Cytotoxicity against human Daudi cells under deem light after 96 hrs by MTT assay; assay type: functional, cell-based
[25] = system: SiHa; assay: Survival of human SIHA cells at 50 uM under deem light after 96 hrs by MTT assay relative to control; assay type: functional; details: read-out: Survival
[26] = Survival of human MDA-MB cells at 1 uM under deem light after 96 hrs by MTT assay relative to control; assay type: functional; details: read-out: Survival
[27] = Photohemolysis in human RBC assessed as concentration required to 50% hemolysis under light exposure for 5 mins; assay type: ADME, cell-based, Erythrocyte; details: human red blood cells, read-out: Activity
[28] = Survival of human H209 cells at 1 uM under deem light after 96 hrs by MTT assay relative to control; assay type: functional; details: NCI-H209, 96 h, read-out: Survival
[29] = Survival of human 2780.9S cells at 0.1 uM under deem light after 96 hrs by MTT assay relative to control; assay type: functional; details: read-out: Survival
[30] = Survival of human 2780.9S cells at 15.7 uM under deem light after 96 hrs by MTT assay relative to control; assay type: functional; details: read-out: Survival
[31] = system: Raji; assay: Survival of human Raji cells at 100 uM under deem light after 96 hrs by MTT assay relative to control; assay type: functional; details: read-out: Survival
[32] = system: K562; assay: Survival of human K562 cells at 100 uM under deem light after 96 hrs by MTT assay relative to control; assay type: functional; details: K562, 96 h, read-out: Survival
[33] = system: NCI-H69; assay: Survival of human H69 cells at 0.1 uM under deem light after 96 hrs by MTT assay relative to control; assay type: functional; details: NCI-H69, 96 h, read-out: Survival
[34] = system: K562; assay: Survival of human K562 cells at 1 uM under deem light after 96 hrs by MTT assay relative to control; assay type: functional; details: K562, 96 h, read-out: Survival
[35] = Survival of human 2780.9S cells at 50 uM under deem light after 96 hrs by MTT assay relative to control; assay type: functional; details: read-out: Survival
[36] = system: Raji; assay: Survival of human Raji cells at 15.7 uM under deem light after 96 hrs by MTT assay relative to control; assay type: functional; details: read-out: Survival
[37] = system: HeLa; assay: Survival of human HeLa cells at 0.1 uM under deem light after 96 hrs by MTT assay relative to control; assay type: functional; details: read-out: Survival
[38] = system: K562; assay: Cytotoxicity against human K562 cells under deem light after 96 hrs by MTT assay; assay type: functional, cell-based; details: K562, 96 h
[39] = Photohemolysis in human RBC assessed as concentration required to 50% hemolysis under light exposure for 10 mins; assay type: ADME, cell-based, Erythrocyte; details: human red blood cells, read-out: Activity
[40] = Photohemolysis in human RBC in absence of light; assay type: ADME, cell-based; details: erythrocyte
[41] = Survival of human MDA-MB cells at 15.7 uM under deem light after 96 hrs by MTT assay relative to control; assay type: functional; details: read-out: Survival
[42] = Photohemolysis in human RBC at 125 nM under exposure to light for 10 mins; assay type: ADME, cell-based, Erythrocyte; details: human red blood cells, read-out: Activity
[43] = system: NCI-H69; assay: Survival of human H69 cells at 15.7 uM under deem light after 96 hrs by MTT assay relative to control; assay type: functional; details: NCI-H69, 96 h, read-out: Survival
[44] = Survival of human 2780.9S cells at 100 uM under deem light after 96 hrs by MTT assay relative to control; assay type: functional; details: read-out: Survival
[45] = Cytotoxicity against human MDA-MB cells under deem light after 96 hrs by MTT assay; assay type: functional, cell-based
[46] = system: K562; assay: Survival of human K562 cells at 0.1 uM under deem light after 96 hrs by MTT assay relative to control; assay type: functional; details: K562, 96 h, read-out: Survival
[47] = Survival of human MDA-MB cells at 50 uM under deem light after 96 hrs by MTT assay relative to control; assay type: functional; details: read-out: Survival
[48] = Cytotoxicity against human 2780.9S cells under deem light after 96 hrs by MTT assay; assay type: functional, cell-based
[49] = system: HeLa; assay: Survival of human HeLa cells at 100 uM under deem light after 96 hrs by MTT assay relative to control; assay type: functional; details: read-out: Survival
[50] = system: SiHa; assay: Cytotoxicity against human SIHA cells under deem light after 96 hrs by MTT assay; assay type: functional, cell-based
[51] = system: NCI-H69; assay: Survival of human H69 cells at 100 uM under deem light after 96 hrs by MTT assay relative to control; assay type: functional; details: NCI-H69, 96 h, read-out: Survival

**Q.** Which results are given for `CCCOC(C)C1=C(C)c2cc3[nH]c(cc4nc(cc5[nH]c(cc1n2)c(C)c5CCC(=O)NCCO)C(CCC(=O)NCCO)=C4C)c(C)c3C(C)OCCC` (stereo unspecified) [HEMATOPORPHYRIN PROPYLETHER ETHANOLAMIDE]?
**A.** viability at 100 µM [1]: 6.7%; viability at 50 µM [2]: 8.6%; viability at 0.1 µM [3]: 97.8%; viability at 100 µM [4]: 5.2%; viability at 1 µM [5]: 119%; viability at 15.7 µM [6]: 7.8%; IC50 [7]: 21 µM; viability at 10 µM [8]: 104%; viability at 1 µM [9]: 100%; IC50 [10]: 21 µM; IC50 [11]: 22 µM; viability at 0.1 µM [12]: 137%; viability at 50 µM [13]: 5.7%; viability at 100 µM [14]: 9.8%; viability at 1 µM [15]: 99.5%; viability at 50 µM [16]: 5.9%; viability at 50 µM [17]: 16.1%; viability at 15.7 µM [18]: 16.1%; viability at 50 µM [19]: 7.4%; viability at 1 µM [20]: 97%; viability at 1 µM [21]: 100%; viability at 15.7 µM [22]: 28.5%; viability at 0.1 µM [23]: 96.1%; IC50 [24]: 22 µM; viability at 50 µM [25]: 2.2%; viability at 1 µM [26]: 112%; HC50 at 5 min [27]: 90 nM; viability at 1 µM [28]: 105%; viability at 0.1 µM [29]: 106%; viability at 15.7 µM [30]: 19.3%; viability at 100 µM [31]: 5.4%; viability at 100 µM [32]: 6.67%; viability at 0.1 µM [33]: 95.5%; viability at 1 µM [34]: 84.7%; viability at 50 µM [35]: 12.3%; viability at 15.7 µM [36]: 23.6%; viability at 0.1 µM [37]: 99.6%; IC50 [38]: 22 µM; HC50 at 10 min [39]: 210 nM; Activity [40]: Non-toxic; viability at 15.7 µM [41]: 24.3%; hemolysis at 10 min, 0.125 µM [42]: 100%; viability at 15.7 µM [43]: 17.1%; viability at 100 µM [44]: 6.5%; IC50 [45]: 12 µM; viability at 0.1 µM [46]: 72.9%; viability at 50 µM [47]: 7.4%; IC50 [48]: 16 µM; viability at 100 µM [49]: 10.5%; IC50 [50]: 44 µM; viability at 100 µM [51]: 14.4%
